Patent publication US20050203163A1, “Farnesyl transferase inhibitors in combination with HMG CoA reductase inhibitors for the treatment of cancer” (Pfizer Inc, priority 1997, published 2005)

Tested on: K-Ras 4B
Test: Prenylation of K-ras 4B in intact cells (immunoblot, densitometric scanning)
Assay type: cell-based
Conditions: 5 μM hydrolysed lovastatin alone (Compound 1 at 0); NIH-3T3 transfectant overexpressing mutant K-Ras 4B; 18 hours at 37° C.

CC[C@H](C)C(=O)O[C@H]1C[C@@H](C)C=C2C=C[C@H](C)[C@H](CC[C@@H]3C[C@@H](O)CC(=O)O3)[C@H]21 [Lovastatin, lovastatin]
% Inhibition OF K-Ras 4B Prenylation: 23%
